Counter-ions that a name gives are not always drawn.
Key:
Assay type in all cases: physicochemical
[1] = Equilibrium solubility in various media (shaker water bath, HPLC analysis); conditions: for Solubility (mg/ml) ± SD: 24 hrs
Experimental: Equilibrium solubility of compound of formula (I) free base and compound of formula (I) fumarate were measured in various medium. Excess quantities of compound of formula (I) and compound of formula (I) fumarate were added to glass vials containing different medium. These vials were kept for shaking in shaker water bath at appropriate temperature (25° C. for water and 37° C. for buffers) at 200 rpm. The obtained preparations were filtered and analysed by means of HPLC.

[2] = Dynamic vapor sorption (DVS) moisture uptake study; conditions: at 90% RH, 25° C.
Experimental: The moisture uptake study of compound of present invention was performed with a DVS instrument (Q5000SA, TA instruments, New Castle, Delaware, USA) at 25° C. to evaluate the physical stability of compound of present invention against moisture or tendency to adsorb moisture. The instrument consisted of a microbalance housed inside a temperature-controlled chamber. The humidity was controlled via switching valves, which control the flow of a dry gas (nitrogen) through a humidification stage. Instrument was programmed for moisture sorption from 40 to 90% RH in 10% RH steps at 25±0.1° C. using an equilibrium condition. The equilibrium condition was set to <0.01% total mass change within 10 min and with a maximum dwell time of 60 min followed by desorption from 90% RH to 10% RH steps. The equilibrium condition for desorption was set to <0.01% total mass change within 10 min and with a maximum dwell time of 60 min.

[3] = Variable temperature X-ray diffraction (VT-XRD) physical stability; conditions: 25° C., 40° C. and 60° C.; isothermal hold of 60 min
Source text: An Anton Paar temperature-humidity chamber (THC) was used to collect in situ XRPD patterns as a function of humidity. The humidity was generated with an RH-200 manufactured by VTI Inc. and carried by a flow of nitrogen gas. The humidity and temperature was monitored by a HygroClip sensor manufactured by Rotronic located next to the specimen inside the THC. XRPD patterns were collected with a PANalytical X'Pert PRO MPD diffractometer in symmetric Bragg-Brentano reflection geometry. Isothermal hold of 60 min given at specified temperature. Heating rate was kept at 10° C./min. Approximately 200 mg sample used for VT-XRD analysis. Cu Kα radiation was produced using a long, fine-focus source operated at 45 kV and 40 mA. The incident beam was conditioned using a nickel filter, a 0.02-rad Soller slit, a 11.6-mm fixed incident beam mask, a fixed 0.76-mm ½° antiscatter slit, and a fixed 0.38-mm ¼° divergence slit. The diffracted beam was conditioned using a 5-mm antiscatter slit, a 0.04-rad Soller slit. The diffraction patterns were collected using a scanning position-sensitive detector (X'Celerator) located 240 mm from the sample. Data were collected and analyzed using Data Collector software v. 5.5.
VT-XRD analysis confirmed that compound of formula (I)-fumaric acid cocrystal remained stable and no solid form transformation/phase change occurred even at higher temperature conditions. […]

[4] = 6-month storage stability of solid form (XRPD, particle morphology); conditions: 6 months
[5] = Variable humidity X-ray diffraction (VH-XRD) physical stability; conditions: 40% RH to 85% RH sorption then desorption to 40% RH, 1 hr at each RH level
Experimental: An Anton Paar TTK 450 stage was used to collect in situ XRPD patterns as a function of temperature. The sample was heated with a resistance heater located directly under the sample holder, and the temperature was monitored with a platinum-100 resistance sensor located in the specimen holder. The heater was powered and controlled by an Anton Paar TCU 100 interfaced with Data Collector. Approximately 200 mg sample used for VH-XRD analysis.
The compound of present invention was exposed to various humidity conditions. The sample, i.e., compound of formula (I) fumarate, was exposed from 40% RH to 85% RH followed by desorption cycle from 85% to 40% RH. The samples were equilibrated for 1 hr at each RH level (both sorption and desorption). […] See, FIG. 6B.

[6] = pH 4.5 Acetate buffer USP, 37° C.
[7] = pH 5.8 Phosphate buffer USP, 37° C.
[8] = pH 6.8 Phosphate buffer USP, 37° C.

| SMILES | Solubility (mg/ml) ± SD ([1]; Purified water, 25° C.) [mg/mL] | solubility at 24 h ([1]; pH 2.8 acid phthalate buffer USP, 37 °C, pH 2.8, aqueous buffer, thermodynamic from solid, pH 2.8 Acid Phthalate buffer USP, 37° C., read-out: Solubility (mg/ml) ± SD) [mg/mL] | Solubility (mg/ml) ± SD [1, 6] [mg/mL] | Solubility (mg/ml) ± SD [1, 7] [mg/mL] | Solubility (mg/ml) ± SD [1, 8] [mg/mL] | weight/moisture gained (DVS) [2] | physical stability at different temperature conditions (VT-XRD) [3] | Solubility (mg/ml) ± SD ([1]; pH 2.8 Acid Phthalate buffer USP, 37° C.) [mg/mL] | solid form and particle morphology after storage ([4]; 25° C./60% RH) | solid form and particle morphology after storage ([4]; 40° C./75% RH) | physical stability at different relative humidity conditions (VH-XRD) [5] |
| --- | --- | --- | --- | --- | --- | --- | --- | --- | --- | --- | --- |
| CC(C)[C@H](C(=O)Nc1cc(C2CC2)[nH]n1)c1cccc(-c2ccc(NC(=O)/C=C/CN3CCOCC3)nc2)c1 [Formula (I) free base, (S, E)-N-(5-(3-(1-((5-cyclopropyl-1H-pyrazol-3-yl)amino)-3-methyl-1-oxobutan-2-yl)phenyl)pyridin-2-yl)-4-morpholinobut-2-enamide] | 0.0013 ± 0.0001 | 0.065 ± 0.004 | 0.07 ± 0.004 | 0.002 ± 0.0001 | 0.0005 ± 0.0002 |  |  |  |  |  |  |
| CC(C)[C@H](C(=O)Nc1cc(C2CC2)[nH]n1)c1cccc(-c2ccc(NC(=O)/C=C/CN3CCOCC3)nc2)c1 [Formula (I) fumarate] | 0.280 ± 0.004 |  | 0.171 ± 0.001 | 0.014 ± 0.004 | 0.014 ± 0.009 | About 0.646 % w/w | physically stable | 0.114 ± 0.017 | remained unchanged | remained unchanged | remained physically stable |
